Data on ten molecules can be found in paper PMC6965176, “Targeting Forward and Reverse EphB4/EFNB2 Signaling by a Peptide with Dual Functions” (Scientific Reports, 2020).

One data set addresses T1, EphB4 (Homo sapiens, UniProt P54760).
T1 construct: purchased R&D Systems
T1 sequence (P54760 16-987): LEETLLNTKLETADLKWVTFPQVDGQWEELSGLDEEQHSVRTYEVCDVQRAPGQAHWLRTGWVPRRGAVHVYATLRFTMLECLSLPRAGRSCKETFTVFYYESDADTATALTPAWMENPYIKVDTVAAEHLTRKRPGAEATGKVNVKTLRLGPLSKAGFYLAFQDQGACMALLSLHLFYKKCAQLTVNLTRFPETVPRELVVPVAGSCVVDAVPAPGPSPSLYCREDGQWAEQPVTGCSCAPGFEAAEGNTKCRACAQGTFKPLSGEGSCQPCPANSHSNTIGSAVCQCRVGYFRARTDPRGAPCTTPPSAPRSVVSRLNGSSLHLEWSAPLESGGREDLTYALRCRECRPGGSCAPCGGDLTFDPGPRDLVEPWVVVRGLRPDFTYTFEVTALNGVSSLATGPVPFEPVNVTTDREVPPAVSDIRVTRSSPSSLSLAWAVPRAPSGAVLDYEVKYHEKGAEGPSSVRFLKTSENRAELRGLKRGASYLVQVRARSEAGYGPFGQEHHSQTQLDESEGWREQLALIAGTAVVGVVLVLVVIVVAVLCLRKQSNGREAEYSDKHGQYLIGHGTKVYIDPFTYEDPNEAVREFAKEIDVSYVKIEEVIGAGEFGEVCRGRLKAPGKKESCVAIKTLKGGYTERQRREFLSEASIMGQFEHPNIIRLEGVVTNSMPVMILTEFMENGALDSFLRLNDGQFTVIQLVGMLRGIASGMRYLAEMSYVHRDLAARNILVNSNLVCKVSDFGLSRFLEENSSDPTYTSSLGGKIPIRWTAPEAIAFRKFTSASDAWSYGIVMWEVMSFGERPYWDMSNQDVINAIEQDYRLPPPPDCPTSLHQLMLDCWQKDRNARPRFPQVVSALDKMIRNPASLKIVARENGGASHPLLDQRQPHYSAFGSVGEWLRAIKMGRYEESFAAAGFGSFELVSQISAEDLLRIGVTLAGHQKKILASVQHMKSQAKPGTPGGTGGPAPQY
Briefly: SPR (BIACore) binding of peptides to immobilized EphB4. The note with it: Table S1; SPR BIACore, EphB4 immobilized on CM5 chip, 25°C, HBSEP buffer pH 7.4, peptides 1.6-800 nM, duplicate, KD = Koff/Kon, 1:1 Langmuir model. An excerpt: Surface plasmon resonance (SPR) binding and competition assays.
Immunoblotting, immunoprecipitation, and co-immunoprecipitation.

For data set [1] the following is noted: systemic exposure; cited from earlier work. An excerpt: Our group previously employed CCPM successfully to improve pharmacokinetics and enhance peptide stability for in vivo imaging applications[28]–[31]. The cross-linked core of CCPM prevents premature micelle disintegration, while the brush-like polyethylene glycol forms a dense protective layer on the micelle surface that minimizes micelle uptake by the organs of the mononuclear phagocytic system.

Data set [2] has as its target T2, recombinant human EphB4 (human), P54760.
T2 chain: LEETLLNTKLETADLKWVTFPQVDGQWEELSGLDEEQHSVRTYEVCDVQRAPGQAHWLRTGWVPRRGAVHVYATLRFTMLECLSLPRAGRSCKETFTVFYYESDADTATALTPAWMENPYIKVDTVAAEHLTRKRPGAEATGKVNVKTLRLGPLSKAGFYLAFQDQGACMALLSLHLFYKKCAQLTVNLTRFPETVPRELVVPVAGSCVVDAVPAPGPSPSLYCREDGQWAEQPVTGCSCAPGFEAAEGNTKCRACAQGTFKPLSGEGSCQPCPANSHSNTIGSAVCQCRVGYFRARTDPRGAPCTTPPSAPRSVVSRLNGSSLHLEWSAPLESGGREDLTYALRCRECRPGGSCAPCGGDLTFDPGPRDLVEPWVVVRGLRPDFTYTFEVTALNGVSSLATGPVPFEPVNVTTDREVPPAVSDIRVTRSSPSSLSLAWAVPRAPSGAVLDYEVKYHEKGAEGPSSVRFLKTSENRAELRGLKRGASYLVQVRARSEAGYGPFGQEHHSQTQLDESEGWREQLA
Briefly: SPR; BIACore 3000; rhEphB4 amine-coupled to CM5 chips; peptides injected at 1.6 nM to 800 nM, 30 uL/min, in duplicate; 25 C; HBSEP buffer (0.01 M HEPES pH 7.4, 0.15 M NaCl, 3 mM EDTA, 0.005% P20); 1:1 Langmuir binding model, KD = Koff/Kon. Background: SPR reads the build-up and loss of mass on a sensor chip optically.

The next data set concerns the target T3, recombinant human EphB4 (human, UniProt P54760 16-539).
T3 construct: EphB4 (ephrin type-B receptor 4), human, recombinant; Amine-coupled to CM5 chips for SPR; a soluble extracellular form is likely; In the functional rows it stands for the EphB4 of the ovarian cancer cells; also called rhEphB4; source: bought: R&D Systems
T3 sequence (looked up): T2 chain
Described as above. The note with it: both partners purified.

Data set [3] deals with T4, EphB4, purified recombinant human (rhEphB4) (human, UniProt P54760 16-987). The experiment in a line: SPR; EphB4 immobilised on sensor chips, peptides or CCPM-BIDEN-AP injected; BIACore 3000; BIDEN-AP data fitted to a 1:1 mass transfer interaction model; details in the Supplementary Information. As to conditions: both partners purified.
Data set [4] concerns the target T4, EphB4, purified recombinant human …. Briefly: SPR; competition: serial dilutions of BIDEN-AP (2 nM to 1000 nM) mixed with human EphB4 (30 nM) and injected onto EFNB2-Fc-coated CM-5 chips. The note with it: both partners purified.

Non-standard residues stand in square brackets, D forms with d. Residues, ends and D or L forms follow the SMILES beside them. No end group written: not given here.

A word on the Kd: it is the concentration at which binding is half-saturated. The molecule `CC[C@H](C)[C@H](NC(=O)[C@@H]1CCCN1C(=O)CNC(=O)[C@H](CC(N)=O)NC(=O)[C@@H]1CCCN1C(=O)[C@H](CO)NC(=O)[C@H](Cc1ccccc1)NC(=O)[C@H](CC(C)C)NC(=O)[C@H](Cc1ccc(O)cc1)NC(=O)[C@H](CC(N)=O)NC(=O)[C@@H](N)[C@@H](C)O)C(=O)N[C@@H](C)C(=O)N[C@H](CCCNC(=N)N)C(=O)N[C@@H](C)C(=O)N[C@@H](Cc1c[nH]c2ccccc12)C(N)=O` [B4-002] came in with a Kd at EphB4 of 39 nM.

`CC[C@H](C)[C@H](NC(=O)[C@@H]1CCCN1C(=O)CNC(=O)[C@H](CC(N)=O)NC(=O)[C@@H]1CCCN1C(=O)[C@H](CO)NC(=O)[C@H](Cc1ccccc1)NC(=O)[C@@H](CC(C)C)NC(=O)[C@H](Cc1ccc(O)cc1)NC(=O)[C@H](CC(N)=O)NC(=O)[C@@H](N)[C@@H](C)O)C(=O)N[C@@H](C)C(=O)N[C@@H](CCCNC(=N)N)C(=O)N[C@@H](C)C(=O)N[C@@H](Cc1c[nH]c2ccccc12)C(N)=O` [B4-004] (H-TNY[dL]FSPNGPIARAW-NH2) returned a Kd on EphB4 of 65 nM.

For the molecule `CC[C@H](C)[C@H](NC(=O)[C@@H]1CCCN1C(=O)CNC(=O)[C@H](CC(N)=O)NC(=O)[C@@H]1CCCN1C(=O)[C@H](CO)NC(=O)[C@@H](Cc1ccccc1)NC(=O)[C@H](CC(C)C)NC(=O)[C@H](Cc1ccc(O)cc1)NC(=O)[C@H](CC(N)=O)NC(=O)[C@@H](N)[C@@H](C)O)C(=O)N[C@@H](C)C(=O)N[C@@H](CCCNC(=N)N)C(=O)N[C@@H](C)C(=O)N[C@@H](Cc1c[nH]c2ccccc12)C(N)=O` [B4-005] (H-TNYL[dF]SPNGPIARAW-NH2), the Kd at EphB4 was 75 nM.

TNYLFSPNGPIARA-NH2 [B4-008] yielded a Kd on EphB4 of 13 nM.

Turning to TNYLFSPNGPIARAW-NH2 [TNYL-RAW], in data set [1], the “area-under-the time curve [AUC]” value is given as 29.1 %ID h/mL.

On EphB4, YSA-TNYL-RAW-dimer [B4-003] came in with a Kd of 21 nM.

B1: YSA-TNYL-RAW-dimer (peptide)
chain: TNYLFSPNGPIARAW
modifications: not checked
With B1, the Kd in data set [2] amounted to 21 nM.

B2: TNYL-RAW (peptide)
peptide: TNYLFSPNGPIARAW
notes: known EphB4 antagonist peptide, 15 residues (P1-P15); Made on Rink resin, so a C-terminal amide is likely; source: synthetic peptide (solid phase, Rink resin, HPLC purified)
Turning to B2, in the data set with recombinant human EphB4, the Kd is 3.1 nM.

B3: Cyclo(KTNYLFSPNGPIARAWD) (peptide)
peptide: KTNYLFSPNGPIARAWD
modifications: also: cyclic, ring bond not given here
notes: TNYL-RAW with an added Lys before and Asp after it, cyclised; MW 1932 Da; also called B4-001; source: synthetic peptide (solid phase, Rink resin, HPLC purified)
In the case of B3, the Kd in the data set with recombinant human EphB4 came out at 4.4 nM.

B4: BIDEN-AP (bi-directional ephrin agonist peptide), TNd(Y)LFSPNGPIARAW (peptide)
peptide: TN[dY]LFSPNGPIARAW
notes: TNYL-RAW with L-Tyr-P3 replaced by D-Tyr; source: synthetic peptide
Broadly, the IC50 is the point on the concentration scale where inhibition reaches its midpoint. In the case of B4, in data set [3], the equilibrium dissociation constant (Kd) amounted to 7 nM. Moreover, in data set [4], the IC50 came to 4 nM.
